Tests used:
Experiment in all cases: relative viability (nuclei count vs DMSO), 5 days (fraction); higher = more cells survive
[1] = tested on: CAL-12T
How it was run: (§1)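 One day after seeding in 1536-well plates, lung cancer cell lines were dosed by pin tool. Dosing was either single-drug or a fixed anchor-drug dose plus five library-drug doses (not always all listed) in √10 steps. After 5 days, nuclei were stained in one fix-and-stain step and counted on 4× images, and relative viability is the nuclei count of treated wells over that of vehicle wells, given as the median of duplicate plates.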

[2] = tested on: HCC-78
How it was run: as §1

[3] = tested on: COR-L 105
How it was run: as §1

[4] = tested on: NCI-H358
How it was run: as §1

[5] = tested on: ABC-1
How it was run: as §1

[6] = tested on: HCC-827
How it was run: as §1

[7] = tested on: HCC-366
How it was run: as §1

[8] = tested on: Calu-6
How it was run: as §1

[9] = tested on: LXF-289
How it was run: as §1

[10] = tested on: EBC-1
How it was run: as §1

[11] = tested on: LU99A
How it was run: as §1

[12] = tested on: NCI-H1734
How it was run: as §1

[13] = tested on: NCI-H2347
How it was run: as §1

[14] = tested on: LOU-NH91
How it was run: as §1

[15] = tested on: NCI-H2170
How it was run: as §1

[16] = tested on: HARA
How it was run: as §1

[17] = tested on: NCI-H1915
How it was run: as §1

[18] = tested on: EKVX
How it was run: as §1

[19] = tested on: 201T
How it was run: as §1

[20] = tested on: UMC-11
How it was run: as §1

[21] = tested on: NCI-H1437
How it was run: as §1

Nc1cccc2c1CN(C1CCC(=O)NC1=O)C2=O (centres undefined) [Lenalidomide] + C[C@@H](Oc1cc(-c2cnn(C3CCNCC3)c2)cnc1N)c1c(Cl)ccc(F)c1Cl [Crizotinib] (partner 1 µM) was tested, and the relative viability ([1]; first compound 0.253 µM) was 0.617, the relative viability ([1]; first compound 0.8 µM) was 0.587 and the relative viability ([1]; first compound 2.53 µM) was 0.692. For the same molecule, the relative viability ([1]; first compound 8 µM) was 0.857, the relative viability ([2]; first compound 0.253 µM) was 0.304 and the relative viability ([2]; first compound 0.8 µM) was 0.31. The relative viability ([2]; first compound 2.53 µM) was 0.351, the relative viability ([2]; first compound 8 µM) was 0.3 and the relative viability ([3]; first compound 0.253 µM) was 0.905. For the same molecule, the relative viability ([3]; first compound 0.8 µM) was 0.716, the relative viability ([3]; first compound 2.53 µM) was 0.986 and the relative viability ([3]; first compound 8 µM) was 1.12. For the same molecule, the relative viability ([4]; first compound 0.253 µM) was 0.667, the relative viability ([4]; first compound 0.8 µM) was 0.592 and the relative viability ([4]; first compound 2.53 µM) was 0.541. It also gave a relative viability ([4]; first compound 8 µM) of 0.712, a relative viability ([5]; first compound 0.253 µM) of 1.06 and a relative viability ([5]; first compound 0.8 µM) of 1.25. The relative viability ([5]; first compound 2.53 µM) was 1.37, the relative viability ([5]; first compound 8 µM) was 1.43 and the relative viability ([6]; first compound 0.253 µM) was 1.02. The relative viability ([6]; first compound 0.8 µM) was 1.02, the relative viability ([6]; first compound 2.53 µM) was 0.964 and the relative viability ([6]; first compound 8 µM) was 1.06. The relative viability ([7]; first compound 0.253 µM) was 0.56, the relative viability ([7]; first compound 0.8 µM) was 0.499 and the relative viability ([7]; first compound 2.53 µM) was 0.465. For the same molecule, the relative viability ([7]; first compound 8 µM) was 0.499, the relative viability ([8]; first compound 0.253 µM) was 0.808 and the relative viability ([8]; first compound 0.8 µM) was 0.825. For the same molecule, the relative viability ([8]; first compound 2.53 µM) was 1.06, the relative viability ([8]; first compound 8 µM) was 1.01 and the relative viability ([9]; first compound 0.253 µM) was 0.831. The relative viability ([9]; first compound 0.8 µM) was 0.836, the relative viability ([9]; first compound 2.53 µM) was 0.919 and the relative viability ([9]; first compound 8 µM) was 0.983. The relative viability ([10]; first compound 0.253 µM) was 0.195, the relative viability ([10]; first compound 0.8 µM) was 0.191 and the relative viability ([10]; first compound 2.53 µM) was 0.154. For the same molecule, the relative viability ([10]; first compound 8 µM) was 0.194, the relative viability ([11]; first compound 0.253 µM) was 0.525 and the relative viability ([11]; first compound 0.8 µM) was 0.517. For the same molecule, the relative viability ([11]; first compound 2.53 µM) was 0.559, the relative viability ([11]; first compound 8 µM) was 0.54 and the relative viability ([12]; first compound 0.253 µM) was 0.622. The relative viability ([12]; first compound 0.8 µM) was 0.654, the relative viability ([12]; first compound 2.53 µM) was 0.618 and the relative viability ([12]; first compound 8 µM) was 0.597. It also gave a relative viability ([13]; first compound 0.253 µM) of 0.779, a relative viability ([13]; first compound 0.8 µM) of 0.674 and a relative viability ([13]; first compound 2.53 µM) of 0.83. The relative viability ([13]; first compound 8 µM) was 0.573, the relative viability ([14]; first compound 0.253 µM) was 0.73 and the relative viability ([14]; first compound 0.8 µM) was 0.732. The relative viability ([14]; first compound 2.53 µM) was 0.714, the relative viability ([14]; first compound 8 µM) was 0.704 and the relative viability ([15]; first compound 0.253 µM) was 1.21. It also gave a relative viability ([15]; first compound 0.8 µM) of 1.14, a relative viability ([15]; first compound 2.53 µM) of 1.17 and a relative viability ([15]; first compound 8 µM) of 1.14. It also gave a relative viability ([16]; first compound 0.253 µM) of 1.02, a relative viability ([16]; first compound 0.8 µM) of 1.05 and a relative viability ([16]; first compound 2.53 µM) of 1.2. For the same molecule, the relative viability ([16]; first compound 8 µM) was 1.13, the relative viability ([17]; first compound 0.253 µM) was 0.906 and the relative viability ([17]; first compound 0.8 µM) was 0.88. The relative viability ([17]; first compound 2.53 µM) was 0.978, the relative viability ([17]; first compound 8 µM) was 0.952 and the relative viability ([18]; first compound 0.253 µM) was 0.978. For the same molecule, the relative viability ([18]; first compound 0.8 µM) was 1.05, the relative viability ([18]; first compound 2.53 µM) was 1.09 and the relative viability ([18]; first compound 8 µM) was 0.998. The relative viability ([19]; first compound 0.253 µM) was 1.05, the relative viability ([19]; first compound 0.8 µM) was 1.02 and the relative viability ([19]; first compound 2.53 µM) was 1.04. It also gave a relative viability ([19]; first compound 8 µM) of 1.05, a relative viability ([20]; first compound 0.253 µM) of 0.61 and a relative viability ([20]; first compound 0.8 µM) of 0.573. For the same molecule, the relative viability ([20]; first compound 2.53 µM) was 0.601, the relative viability ([20]; first compound 8 µM) was 0.644 and the relative viability ([21]; first compound 0.253 µM) was 1.01. It also gave a relative viability ([21]; first compound 0.8 µM) of 0.917, a relative viability ([21]; first compound 2.53 µM) of 1.02 and a relative viability ([21]; first compound 8 µM) of 0.938.
